ChEMBL document CHEMBL4610047, “Design, synthesis and anti-Alzheimer's disease activity study of xanthone derivatives based on multi-target strategy” (Bioorg Med Chem Lett, 2020)
Calls of active or inactive are those of the source. The calls are words filed in the database; no cut-off is given here.

Key:
Acetylcholinesterase = Acetylcholinesterase (Electrophorus electricus, UniProt O42275); assay: Inhibition of electric eel AChE using acetylthiocholine iodide as substrate by Ellman's method
Cholinesterase = Cholinesterase (Equus caballus, UniProt P81908); assay: Inhibition of equine serum BChE using butyrylthiocholine as substrate by Ellman's method
Cholinesterase, sequence (P81908 whole entry): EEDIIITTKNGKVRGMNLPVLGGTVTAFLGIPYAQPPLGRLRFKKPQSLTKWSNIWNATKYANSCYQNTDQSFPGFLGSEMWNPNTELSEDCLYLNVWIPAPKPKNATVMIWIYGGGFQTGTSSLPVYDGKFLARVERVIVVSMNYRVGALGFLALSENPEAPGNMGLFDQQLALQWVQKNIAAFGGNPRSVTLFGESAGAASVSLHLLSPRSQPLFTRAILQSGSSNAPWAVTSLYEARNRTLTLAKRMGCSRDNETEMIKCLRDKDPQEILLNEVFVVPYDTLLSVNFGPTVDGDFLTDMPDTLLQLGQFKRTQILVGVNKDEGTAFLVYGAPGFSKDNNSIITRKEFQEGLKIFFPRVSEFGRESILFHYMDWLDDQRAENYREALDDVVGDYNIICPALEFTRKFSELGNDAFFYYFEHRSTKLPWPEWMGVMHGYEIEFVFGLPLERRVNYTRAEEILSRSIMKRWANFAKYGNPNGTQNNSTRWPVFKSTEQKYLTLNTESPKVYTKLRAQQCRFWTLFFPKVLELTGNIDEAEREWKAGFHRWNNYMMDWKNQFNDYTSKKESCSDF

[1] = Metal chelating activity assessed as compound-Cu2+ complex formation by measuring band wavelength at 10 uM in presence of CuCl2 after 30 mins by UV-visible spectrophotometric analysis
[2] = Metal chelating activity assessed as compound-Cu2+ complex stoichiometry ratio of 2:1 at 10 uM in presence of CuCl2 after 30 mins by UV-visible spectrophotometric analysis
[3] = Metal chelating activity assessed as compound-Cu2+ complex formation by measuring stability constant at 10 uM in presence of CuCl2 after 30 mins by UV-visible spectrophotometric analysis
[4] = target: Acetylcholinesterase (Electrophorus electricus) (UniProt O42275); assay: Mixed type inhibition of electric eel AChE assessed as decrease in Vmax at 0.16 to 0.64 uM by reciprocal Lineweaver-Burk plot analysis
Acetylcholinesterase (Electrophorus electricus), sequence (O42275 24-633 limits assumed): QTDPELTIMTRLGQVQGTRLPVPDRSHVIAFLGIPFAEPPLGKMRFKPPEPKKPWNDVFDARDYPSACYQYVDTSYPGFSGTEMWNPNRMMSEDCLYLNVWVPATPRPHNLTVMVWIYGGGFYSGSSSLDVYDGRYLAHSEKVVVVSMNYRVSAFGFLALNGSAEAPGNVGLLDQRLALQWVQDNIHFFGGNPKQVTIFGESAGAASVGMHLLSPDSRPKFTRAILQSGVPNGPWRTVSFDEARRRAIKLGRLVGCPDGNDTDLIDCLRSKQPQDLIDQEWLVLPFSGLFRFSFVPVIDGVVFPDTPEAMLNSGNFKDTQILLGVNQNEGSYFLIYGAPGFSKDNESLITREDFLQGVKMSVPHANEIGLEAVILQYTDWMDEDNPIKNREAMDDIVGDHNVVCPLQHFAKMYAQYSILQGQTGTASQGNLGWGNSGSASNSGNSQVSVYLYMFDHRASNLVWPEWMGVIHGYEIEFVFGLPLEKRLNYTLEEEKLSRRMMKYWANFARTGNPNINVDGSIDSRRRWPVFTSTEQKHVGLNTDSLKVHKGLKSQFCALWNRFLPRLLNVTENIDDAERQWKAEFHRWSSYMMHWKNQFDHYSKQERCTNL

[5] = target: Acetylcholinesterase (Electrophorus electricus) (UniProt O42275); assay: Mixed type inhibition of electric eel AChE assessed as increase in Km at 0.16 to 0.64 uM by reciprocal Lineweaver-Burk plot analysis

Acetylcholinesterase, sequence (O42275 whole entry): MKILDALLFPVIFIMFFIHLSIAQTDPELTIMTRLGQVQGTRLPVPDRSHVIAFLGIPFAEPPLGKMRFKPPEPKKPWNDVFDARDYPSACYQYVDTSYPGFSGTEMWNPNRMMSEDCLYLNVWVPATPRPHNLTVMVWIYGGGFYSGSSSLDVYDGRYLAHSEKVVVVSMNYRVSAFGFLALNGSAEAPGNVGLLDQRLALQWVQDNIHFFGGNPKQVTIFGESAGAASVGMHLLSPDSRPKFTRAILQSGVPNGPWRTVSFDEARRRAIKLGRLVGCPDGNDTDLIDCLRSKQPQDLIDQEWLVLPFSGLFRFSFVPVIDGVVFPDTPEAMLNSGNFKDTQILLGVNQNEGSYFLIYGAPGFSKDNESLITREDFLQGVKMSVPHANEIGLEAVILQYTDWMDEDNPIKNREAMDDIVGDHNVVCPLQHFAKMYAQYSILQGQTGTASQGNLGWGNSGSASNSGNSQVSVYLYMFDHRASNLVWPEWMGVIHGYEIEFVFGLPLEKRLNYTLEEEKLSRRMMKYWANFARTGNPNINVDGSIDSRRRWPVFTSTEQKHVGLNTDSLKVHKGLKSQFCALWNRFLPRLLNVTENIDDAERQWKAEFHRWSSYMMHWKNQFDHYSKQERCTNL

Row | Compound | IC50 (Acetylcholinesterase) | IC50 (Cholinesterase) | Activity [1] | Activity [2] | K [3] | inhibition [4] | inhibition [5]
1 | O=c1c2ccc(OCCN3CCCCC3)cc2oc2cc(OCCN3CCCCC3)cc(O)c12 | 964 nM | 4.02 µM | Active | Active | 2.16 ×10⁵ No_unit |  | 
2 | O=c1c2ccc(OCCN3CCCC3)cc2oc2cc(OCCN3CCCC3)cc(O)c12 | 328 nM | 3.7 µM | Active | Active | 2.67 ×10⁵ No_unit | Active | Active
3 | O=c1c2ccc(OCCN3CCOCC3)cc2oc2cc(OCCN3CCOCC3)cc(O)c12 | 31200 nM | > 300 µM | Active | Active | 1.14 ×10⁵ No_unit |  | 
4 | CN(C)CCOc1ccc2c(=O)c3c(O)cc(OCCN(C)C)cc3oc2c1 | 2470 nM | 18 µM | Active | Active | 1.65 ×10⁵ No_unit |  | 
